# According to ChEMBL document CHEMBL3217407, “Adamantane substituted aminocyclitols as pharmacological chaperones for Gaucher disease” (Medchemcomm, 2013):
# Calls of active or inactive are those of the source. No cut-off for these calls is given here.
# Experiments:
# [1] = target: T1, Lysosomal acid glucosylceramidase (Homo sapiens) (UniProt P04062); conditions: 50 uM
# T1 sequence (whole entry): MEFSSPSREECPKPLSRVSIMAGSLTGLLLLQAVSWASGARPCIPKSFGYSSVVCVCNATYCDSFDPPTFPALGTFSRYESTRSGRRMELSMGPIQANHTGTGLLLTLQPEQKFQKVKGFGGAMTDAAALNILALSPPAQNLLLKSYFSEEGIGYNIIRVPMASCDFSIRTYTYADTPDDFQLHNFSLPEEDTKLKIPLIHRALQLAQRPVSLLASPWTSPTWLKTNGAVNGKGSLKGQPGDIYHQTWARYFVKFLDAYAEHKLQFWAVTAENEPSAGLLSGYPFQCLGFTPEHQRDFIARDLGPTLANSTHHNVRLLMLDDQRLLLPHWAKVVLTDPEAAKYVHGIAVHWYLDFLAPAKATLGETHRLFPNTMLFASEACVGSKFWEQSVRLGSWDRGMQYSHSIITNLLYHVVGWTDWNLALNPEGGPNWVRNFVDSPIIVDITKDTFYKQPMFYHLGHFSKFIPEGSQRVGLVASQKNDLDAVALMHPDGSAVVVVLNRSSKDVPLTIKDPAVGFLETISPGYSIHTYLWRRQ
# Description: Inhibition of imiglucerase in human fibroblasts using 4-methylumbelliferyl-beta-D-glucopyranoside as substrate at 50 uM after 24 hrs
# [2] = target: T1, Lysosomal acid glucosylceramidase (Homo sapiens); assay: Ratio of IC50 for human recombinant imiglucerase at pH 5.2 to IC50 for human recombinant imiglucerase at pH 7
# [3] = target: T2, Beta-galactosidase (Bos taurus) (UniProt Q58D55); assay: Inhibition of bovine liver beta-galactosidase at 200 uM
# T2 sequence (whole entry): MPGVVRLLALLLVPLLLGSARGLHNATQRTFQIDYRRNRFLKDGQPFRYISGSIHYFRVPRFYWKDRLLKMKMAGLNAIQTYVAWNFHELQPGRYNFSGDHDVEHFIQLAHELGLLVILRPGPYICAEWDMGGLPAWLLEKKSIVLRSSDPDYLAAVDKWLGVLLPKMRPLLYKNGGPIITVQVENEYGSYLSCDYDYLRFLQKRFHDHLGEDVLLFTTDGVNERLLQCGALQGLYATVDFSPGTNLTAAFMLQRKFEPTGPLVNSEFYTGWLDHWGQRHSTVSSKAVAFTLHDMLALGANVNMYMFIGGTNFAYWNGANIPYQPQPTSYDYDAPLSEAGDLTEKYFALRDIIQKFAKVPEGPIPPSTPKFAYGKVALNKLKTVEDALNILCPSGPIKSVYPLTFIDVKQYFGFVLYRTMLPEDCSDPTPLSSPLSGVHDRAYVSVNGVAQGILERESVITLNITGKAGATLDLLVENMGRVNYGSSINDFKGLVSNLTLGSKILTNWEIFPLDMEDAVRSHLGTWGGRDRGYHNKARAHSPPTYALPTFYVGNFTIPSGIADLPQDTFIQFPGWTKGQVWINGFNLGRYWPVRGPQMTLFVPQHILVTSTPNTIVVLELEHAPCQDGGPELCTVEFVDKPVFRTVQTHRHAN
# [4] = tested on: Saccharomyces cerevisiae; assay: Inhibition of yeast alpha-glucosidase at 200 uM
# [5] = Cytotoxicity against human fibroblasts up to 300 uM after 24 hrs by MTT assay; type: cell-based; conditions: fibroblast
# [6] = target: Alpha-galactosidase (Coffea arabica) (UniProt Q42656); assay: Inhibition of coffee beans alpha-galactosidase at 200 uM
# [7] = target: T3, Lysosomal acid glucosylceramidase (Homo sapiens, UniProt P04062); assay: Competitive inhibition of human recombinant imiglucerase using 4-methylumbelliferyl-beta-D-glucopyranoside as substrate preincubated for 30 mins at pH 7 before substrate addition measured after 10 mins by Lineweaver-Burk or Dixon plot analysis
# T3 sequence (P04062 whole entry): T1 sequence (whole entry)
# [8] = target: T3, Lysosomal acid glucosylceramidase; assay: Inhibition of human recombinant imiglucerase using 4-methylumbelliferyl-beta-D-glucopyranoside as substrate preincubated for 30 mins at pH 5.2 before substrate addition measured after 10 mins
# [9] = target: T3, Lysosomal acid glucosylceramidase; assay: Competitive inhibition of human recombinant imiglucerase using 4-methylumbelliferyl-beta-D-glucopyranoside as substrate preincubated for 30 mins at pH 5.2 before substrate addition measured after 10 mins by Lineweaver-Burk or Dixon plot analysis
# [10] = target: T1, Lysosomal acid glucosylceramidase (Homo sapiens); assay: Inhibition of imiglucerase in human fibroblasts using 4-methylumbelliferyl-beta-D-glucopyranoside as substrate at 200 uM after 24 hrs
# [11] = target: T3, Lysosomal acid glucosylceramidase; assay: Inhibition of human recombinant imiglucerase using 4-methylumbelliferyl-beta-D-glucopyranoside as substrate preincubated for 30 mins at pH 7 before substrate addition measured after 10 mins
# Chain of Alpha-galactosidase (Coffea arabica) (Q42656 16-378 limits assumed): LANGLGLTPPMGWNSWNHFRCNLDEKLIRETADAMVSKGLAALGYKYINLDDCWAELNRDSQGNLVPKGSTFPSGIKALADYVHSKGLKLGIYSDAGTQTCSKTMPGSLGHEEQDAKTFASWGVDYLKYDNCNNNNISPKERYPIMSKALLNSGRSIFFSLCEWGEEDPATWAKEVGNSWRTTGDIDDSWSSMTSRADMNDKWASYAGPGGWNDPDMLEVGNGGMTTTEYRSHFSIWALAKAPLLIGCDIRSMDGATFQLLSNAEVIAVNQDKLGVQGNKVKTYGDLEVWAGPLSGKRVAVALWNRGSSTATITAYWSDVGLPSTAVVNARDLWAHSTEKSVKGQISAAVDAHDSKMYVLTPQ
Ratio IC50 [2],inhibition [3],inhibition [4],inhibition [6],Ki [7] [µM],IC50 [8] [µM],Ki [9] [µM],inhibition [10] [%],IC50 [11] [µM],Structure (SMILES),inhibition [1] [%],Activity [5]
,,,,,,,,,CCCCCCCCCN[C@H]1[C@H](O)[C@@H](O)[C@H](O)[C@@H](O)[C@@H]1O,29,
12,24%,inactive,inactive,0.25,5.4,2.9,1,0.37,O=C(CCCN[C@@H]1[C@H](O)[C@H](O)[C@@H](O)[C@H](O)[C@H]1O)NC12CC3CC(CC(C3)C1)C2,,Non-toxic
4,inactive,inactive,inactive,45,257,183,0,58,O=C(CCCN[C@H]1[C@H](O)[C@@H](O)[C@H](O)[C@@H](O)[C@@H]1O)NC12CC3CC(CC(C3)C1)C2,,Non-toxic
,,,,,,,,,CCCCCCCCCN[C@@H]1[C@H](O)[C@H](O)[C@@H](O)[C@H](O)[C@H]1O,95,
